Reference: ChEMBL document CHEMBL1201862, “PubChem BioAssay data set” (2004)
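Step 1: Grow cells in 96-well plates. Step 2: Expose to compound for 48 hours at 5 concentrations. Step 3: Interpolate endpoints linearly; if unreached, use highest concentration. Here, GI50 denotes the concentration required for 50% inhibition of growth.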 Active and inactive are the calls of the source. No stated cut-off is given here; in the data, active = GI50 up to about 1.1 µM and inactive = higher.

Assays:
Assay in all cases: NCI tumour cell line growth inhibition, 48 h
SK-MEL-28 = test system: SK-MEL-28
KM12 = test system: KM12
HT-29 = test system: HT-29
IGROV-1 = test system: IGROV-1
DMS-114 = test system: DMS-114
NCI-H226 = test system: NCI-H226
RXF 631 = test system: RXF 631
HCT-116 = test system: HCT-116
CAKI-1 = test system: CAKI-1
SNB-78 = test system: SNB-78
SR = test system: SR
SF-268 = test system: SF-268
MOLT-4 = test system: MOLT-4
OVCAR-3 = test system: OVCAR-3
UO-31 = test system: UO-31
Malme-3M = test system: Malme-3M
CCRF-CEM = test system: CCRF-CEM
KM-20L2 = test system: KM-20L2
COLO 205 = test system: COLO 205
DLD-1 = test system: DLD-1
SW-620 = test system: SW-620
M19-MEL = test system: M19-MEL
A498 = test system: A498
EKVX = test system: EKVX
LXFL 529 = test system: LXFL 529
HOP-92 = test system: HOP-92
SF-539 = test system: SF-539
OVCAR-5 = test system: OVCAR-5
UACC-257 = test system: UACC-257
SN12C = test system: SN12C
U-251 = test system: U-251
HCT-15 = test system: HCT-15
SK-MEL-5 = test system: SK-MEL-5
NCI-H23 = test system: NCI-H23
NCI-H460 = test system: NCI-H460
M14 = test system: M14
A549 = test system: A549
UACC-62 = test system: UACC-62
HCC 2998 = test system: HCC 2998
SF-295 = test system: SF-295
K562 = test system: K562
OVCAR-4 = test system: OVCAR-4
ACHN = test system: ACHN
NCI-H522 = test system: NCI-H522
RPMI-8226 = test system: RPMI-8226
SNB-75 = test system: SNB-75
SNB-19 = test system: SNB-19
SK-OV-3 = test system: SK-OV-3
OVCAR-8 = test system: OVCAR-8
XF498 = test system: XF498
RXF 393 = test system: RXF 393
HOP-62 = test system: HOP-62
LOX IMVI = test system: LOX IMVI
HOP-18 = test system: HOP-18
786-0 = test system: 786-0
TK-10 = test system: TK-10

Measured: GI50

CS/C(C)=N/OC(=O)NCCCCNc1ccc(N=[N+]=[N-])cc1
inactive: SK-MEL-28 49.7 µM | KM12 29.5 µM | HT-29 46.2 µM | IGROV-1 87.3 µM | DMS-114 13.1 µM | NCI-H226 21 µM | RXF 631 17.4 µM | HCT-116 34.2 µM | CAKI-1 36.5 µM | SNB-78 82.6 µM | SR 37.8 µM | SF-268 32.7 µM | MOLT-4 28.4 µM | OVCAR-3 27.7 µM | UO-31 20.7 µM | Malme-3M 32 µM | CCRF-CEM 24.2 µM | KM-20L2 41.5 µM | COLO 205 36.1 µM | DLD-1 > 100 µM | SW-620 58.5 µM | M19-MEL 34.6 µM | A498 47 µM | EKVX 45.4 µM | LXFL 529 24.1 µM | HOP-92 55.3 µM | SF-539 50.5 µM | OVCAR-5 > 100 µM | UACC-257 30.9 µM | SN12C 59.2 µM | U-251 30.6 µM | SK-MEL-5 16.7 µM | NCI-H23 34.9 µM | NCI-H460 35 µM | M14 37.7 µM | A549 30.4 µM | UACC-62 21.8 µM | HCC 2998 23.9 µM | SF-295 28.5 µM | K562 30.8 µM | OVCAR-4 42.9 µM | ACHN 26.2 µM | NCI-H522 4.76 µM | RPMI-8226 18.4 µM | SNB-75 52.4 µM | SNB-19 66.4 µM | SK-OV-3 37.9 µM | OVCAR-8 47.9 µM | XF498 13.8 µM | RXF 393 46 µM | HOP-62 48.2 µM | LOX IMVI 26.7 µM | HOP-18 > 100 µM | 786-0 76.7 µM | TK-10 33.3 µM
36.9 µM: HCT-15
